Our source for the carcinogen call values is PubChem BioAssay AID1259411 (Chemical Carcinogenesis Research Information System (CCRIS), 2018).

Molecules are shown by their SMILES. Calls of active or inactive are those of the source. No rule for the calls is given here.

This data set concerns rodent carcinogenicity bioassays, tumor incidence. The experiment in a line: CCRIS carcinogenicity studies. Summed up:
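NCI-built, expert-reviewed records of carcinogenicity and related test outcomes (mutagenicity, tumor promotion/inhibition) compiled from published and report sources, historical span 1985-2011, not updated.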

Regarding `CCCC(CCC)C(=O)O`, the carcinogen call was “active; positive” (Species: RAT, Strain/Sex: WISTAR/FEMALE, Route: ORAL, Dose: 0, 125, 250, 500 MG/KG BW IN DIET FOR 104 WK (STUDY DURATION: 104 WK), Dose: 0, 125, 250, 500 MG/KG BW IN DIET FOR 104 WK (STUDY DURATION: 104 WK), Tumor Site: Type of Lesion: UTERUS: ADENOCARCINOMA) and “inactive; negative” (Species: RAT, Strain/Sex: WISTAR/MALE, Route: ORAL, Dose: 0, 125, 250, 500 MG/KG BW IN DIET FOR 104 WK (STUDY DURATION: 104 WK), Dose: 0, 125, 250, 500 MG/KG BW IN DIET FOR 104 WK (STUDY DURATION: 104 WK)).
Turning to `O=NN1CCCCCCC1`, the carcinogen call is, setting by setting: (Species: HAMSTER, Strain/Sex: EUROPEAN/FEMALE, Route: SUBCUTANEOUS, Dose: 11, 22, 44 MG/KG 3/WK, Dose: 11, 22, 44 MG/KG 3/WK, Tumor Site: Type of Lesion: LUNG: ADENOCARCINOMA, SQUAMOUS CELL CARCINOMA, NASAL CAVITY: SQUAMOUS CELL CARCINOMA) “active; positive”; (Species: HAMSTER, Strain/Sex: EUROPEAN/MALE, Route: SUBCUTANEOUS, Dose: 16.5, 33, 66 MG/KG 3/WK, Dose: 16.5, 33, 66 MG/KG 3/WK, Tumor Site: Type of Lesion: LUNG: ADENOCARCINOMA, SQUAMOUS CELL CARCINOMA, NASAL CAVITY: SQUAMOUS CELL CARCINOMA) “active; positive”; (Species: HAMSTER, Strain/Sex: SYRIAN/MALE, Route: ORAL, Dose: 50, 200 MG/L 5 NIGHT/WK FOR 50 WK IN DRINKING WATER, Tumor Site: Type of Lesion: NASAL CAVITY, LARYNX, PHARYNX, TRACHEA, ESOPHAGUS, FORESTOMACH, Tumor Site: Type of Lesion: NASAL CAVITY, LARYNX, PHARYNX, TRACHEA, ESOPHAGUS, FORESTOMACH) “active; positive”; (Species: RAT, Strain/Sex: LISTER/FEMALE, Route: SUBCUTANEOUS, Dose: 0, 1 MG 1/WK FOR 10 WK (STUDY DURATION: 104 WK)) “inactive; negative”; (Species: RAT, Strain/Sex: MRC/MALE,FEMALE, Route: ORAL, Dose: 100 MG/L 5 D/WK FOR 30 WK IN DRINKING WATER, Tumor Site: Type of Lesion: ESOPHAGUS, TRACHEA: SQUAMOUS CELL PAPILLOMA, LUNG: SQUAMOUS CELL CARCINOMA, Tumor Site: Type of Lesion: ESOPHAGUS, TRACHEA: SQUAMOUS CELL PAPILLOMA, LUNG: SQUAMOUS CELL CARCINOMA) “active; positive”.
As for `O=NN1CCCCC1`, the carcinogen call by setting is: (Species: HAMSTER, Route: SUBCUTANEOUS, Tumor Site: Type of Lesion: TRACHEA, NASAL CAVITY, ESOPHAGUS, FORESTOMACH, LUNG, LIVER, Tumor Site: Type of Lesion: TRACHEA, NASAL CAVITY, ESOPHAGUS, FORESTOMACH, LUNG, LIVER) “active; positive”; (Species: HAMSTER, Strain/Sex: SYRIAN/MALE,FEMALE, Route: ORAL, Dose: 0.006, 0.025, 0.05% IN DRINKING WATER FOR LIFE, Dose: 0.006, 0.025, 0.05% IN DRINKING WATER FOR LIFE, Tumor Site: Type of Lesion: RESPIRATORY TRACT (LARYNX, PHARYNX, TRACHEA): PAPILLOMA, EPIDERMOID CARCINOMA, PAPILLARY POLYP, FORESTOMACH: PAPILLOMA) “active; positive”; (Species: MONKEY, Route: ORAL, Tumor Site: Type of Lesion: LIVER) “active; positive”; (Species: MOUSE, Route: INTRAPERITONEAL, Tumor Site: Type of Lesion: LUNG) “active; positive”; (Species: MOUSE, Route: ORAL, Tumor Site: Type of Lesion: FORESTOMACH, LIVER, LUNG, Tumor Site: Type of Lesion: FORESTOMACH, LIVER, LUNG) “active; positive”; (Species: RAT, Route: INTRAVENOUS, Tumor Site: Type of Lesion: ESOPHAGUS, PHARYNX) “active; positive”. Moreover, the carcinogen call is, setting by setting: (Species: RAT, Route: ORAL, Tumor Site: Type of Lesion: ESOPHAGUS, LIVER) “active; positive”; (Species: RAT, Route: SUBCUTANEOUS, Tumor Site: Type of Lesion: ESOPHAGUS, NASAL CAVITY) “active; positive”; (Species: RAT, Strain/Sex: F344/FEMALE, Route: ORAL, Dose: 0.9 MILLIMOLAR SOLUTION (100 MG/L) IN DRINKING WATER 5/WK FOR 28 WK, Tumor Site: Type of Lesion: ESOPHAGUS: PAPILLOMA, CARCINOMA) “active; positive”.
Regarding `Oc1ccc(-c2cc(Cl)c(Cl)c(Cl)c2Cl)cc1`, the carcinogen call is, setting by setting: (Species: MOUSE, Strain/Sex: BALB/CCRGL/FEMALE, Route: SUBCUTANEOUS, Dose: 40 UG DAILY FOR 5 D BEGINNING 16 HR AFTER BIRTH (STUDY DURATION: 20 MO), Tumor Site: Type of Lesion: MAMMARY GLAND: CARCINOMA (4/30), CERVICOVAGINAL TRACT: CARCINOMA (4/30)) “active; positive”; (Species: MOUSE, Strain/Sex: BALB/CCRGL/FEMALE, Route: SUBCUTANEOUS, Dose: 400 UG DAILY FOR 5 D BEGINNING 16 HR AFTER BIRTH (STUDY DURATION: 20 MO), Tumor Site: Type of Lesion: CERVICOVAGINAL TRACT: CARCINOMA (5/24)) “active; positive”.
Turning to `CO[C@@]12[C@H](COC(N)=O)C3=C(C(=O)C(C)=C(N)C3=O)N1C[C@@H]1N[C@@H]12`, the carcinogen call was “active; positive” (Species: RAT, Route: INTRAPERITONEAL, Tumor Site: Type of Lesion: PERITONEAL CAVITY) and “active; positive” (Species: RAT, Route: INTRAVENOUS, Tumor Site: Type of Lesion: PERITONEAL CAVITY, MAMMARY GLAND, INTESTINES, Tumor Site: Type of Lesion: PERITONEAL CAVITY, MAMMARY GLAND, INTESTINES).
In the case of `CCCCCCN(N=O)C(N)=O`, the carcinogen call was “active; positive” (Species: RAT, Strain/Sex: F344/FEMALE, Route: GAVAGE, Dose: 0, 17.5 MG/ML (TOTAL DOSE 0; 2 MMOL) IN 2 ML ETHYL ACETATE AND CORN OIL (1:2) 2/WK FOR 50 WK (STUDY DURATION: LIFETIME), Dose: 0, 17.5 MG/ML (TOTAL DOSE 0; 2 MMOL) IN 2 ML ETHYL ACETATE AND CORN OIL (1:2) 2/WK FOR 50 WK (STUDY DURATION: LIFETIME), Tumor Site: Type of Lesion: FORESTOMACH: SQUAMOUS CELL CARCINOMA, LUNG: TUMOR, MAMMARY GLAND: TUMOR, UTERUS: TUMOR, Tumor Site: Type of Lesion: FORESTOMACH: SQUAMOUS CELL CARCINOMA, LUNG: TUMOR, MAMMARY GLAND: TUMOR, UTERUS: TUMOR); “active; positive” (Species: RAT, Strain/Sex: F344/FEMALE, Route: GAVAGE, Dose: 0, 17.5 MG/ML IN 0.2 ML ETHYL ACETATE AND CORN OIL 2/WK FOR 50 WK (STUDY DURATION: LIFESPAN), Tumor Site: Type of Lesion: FORESTOMACH: TUMOR, LUNG: TUMOR, MAMMARY GLAND: TUMOR, UTERUS: TUMOR, Tumor Site: Type of Lesion: FORESTOMACH: TUMOR, LUNG: TUMOR, MAMMARY GLAND: TUMOR, UTERUS: TUMOR); “active; positive” (Species: RAT, Strain/Sex: F344/MALE, Route: GAVAGE, Dose: 0, 17.5 MG/ML (TOTAL DOSE 0; 2 MMOL) IN 2 ML ETHYL ACETATE AND CORN OIL (1:2) 2/WK FOR 50 WK (STUDY DURATION: LIFETIME), Dose: 0, 17.5 MG/ML (TOTAL DOSE 0; 2 MMOL) IN 2 ML ETHYL ACETATE AND CORN OIL (1:2) 2/WK FOR 50 WK (STUDY DURATION: LIFETIME), Tumor Site: Type of Lesion: FORESTOMACH: SQUAMOUS CELL CARCINOMA, LUNG: TUMOR, BODY CAVITY: MESOTHELIOMA, Tumor Site: Type of Lesion: FORESTOMACH: SQUAMOUS CELL CARCINOMA, LUNG: TUMOR, BODY CAVITY: MESOTHELIOMA); “active; positive” (Species: RAT, Strain/Sex: F344/MALE, Route: GAVAGE, Dose: 0, 17.5 MG/ML IN 0.2 ML ETHYL ACETATE AND CORN OIL 2/WK FOR 50 WK (STUDY DURATION: LIFESPAN), Tumor Site: Type of Lesion: FORESTOMACH: TUMOR, LUNG: TUMOR, PERITONEUM: MESOTHELIOMA, SKIN: TUMOR, Tumor Site: Type of Lesion: FORESTOMACH: TUMOR, LUNG: TUMOR, PERITONEUM: MESOTHELIOMA, SKIN: TUMOR).
With `COC(=O)C1=C(C)NC(C)=C(C(=O)OCCc2ccc(N3CCN(C(c4ccccc4)c4ccccc4)CC3)cc2)C1c1cccc([N+](=O)[O-])c1` (stereo not drawn), the carcinogen call (Species: MOUSE, Strain/Sex: B6C3F1/FEMALE, Route: ORAL, Dose: 0, 30, 90, 300 PPM IN DIET FOR 18 MO (STUDY DURATION: 18 MO), Dose: 0, 30, 90, 300 PPM IN DIET FOR 18 MO (STUDY DURATION: 18 MO)) is “inactive; negative”; the carcinogen call (Species: MOUSE, Strain/Sex: B6C3F1/MALE, Route: ORAL, Dose: 0, 30, 90, 300 PPM IN DIET FOR 18 MO (STUDY DURATION: 18 MO), Dose: 0, 30, 90, 300 PPM IN DIET FOR 18 MO (STUDY DURATION: 18 MO)) is “inactive; negative”; the carcinogen call (Species: RAT, Strain/Sex: F344/FEMALE, Route: ORAL, Dose: 0, 30, 90, 300 PPM IN DIET FOR 24 MO (STUDY DURATION: 24 MO), Dose: 0, 30, 90, 300 PPM IN DIET FOR 24 MO (STUDY DURATION: 24 MO)) is “inactive; negative”; the carcinogen call (Species: RAT, Strain/Sex: F344/MALE, Route: ORAL, Dose: 0, 30, 90, 300 PPM IN DIET FOR 24 MO (STUDY DURATION: 24 MO), Dose: 0, 30, 90, 300 PPM IN DIET FOR 24 MO (STUDY DURATION: 24 MO)) is “inactive; negative”.
